Tests used:
[1] = Sodium ion response, fluorescence intensity with 60 mM NaCl (Fmax) or without NaCl (F0); conditions: 2.5 μM, Tris-HCl buffer pH 7, 60 mM NaCl (Fmax) vs no NaCl (F0), FIG. 5
Description: FIG. 5. Comparisons of Compound 8 and SBFI to sodium ion responses. SBFI (2.5 μM) and Compound 8 (2.5 μM) are added in Tris-HCl buffer (pH-7) with 60 mM NaCl (Fmax) or without NaCl (F0) and their fluorescence intensities are recorded. […] SBFI=Black column; Compound 8=Grey column.

[2] = Absorption spectra in TRIS buffer (pH 7.0) in the presence of 100 mM NaCl; format: physicochemical; conditions: 10 μM, TRIS buffer pH 7.0, 100 mM NaCl, FIG. 1
Description: (§1) FIG. 1. The absorption spectral comparison of SBFI and Compound 8. SBFI (10 μM) and Compound 8 (10 μM) are dissolved in TRIS buffer (pH 7.0). The absorption spectra are recorded in the presence of 100 mM NaCl. […] A longer absorption wavelength minimizes the background caused by naturally occurring biological substances.

[3] = Excitation and fluorescence spectra in TRIS buffer (pH 7.0) in the presence of 100 mM NaCl; format: physicochemical; conditions: 2.5 μM, TRIS buffer pH 7.0, 100 mM NaCl, FIG. 3
Description: (§2) FIG. 3. The spectral comparison of SBFI and Compound 8. SBFI (2.5 μM) and Compound 8 (2.5 μM) are dissolved in TRIS buffer (pH 7.0). The excitation and fluorescence spectra are recorded in the presence of 100 mM NaCl. […] The strong and sharp fluorescence emission peak is a critical characteristic required for multicolor analysis.

[4] = Potassium ion response, fluorescence intensity with 60 mM KCl (Fmax) or without KCl (F0); conditions: 2.5 μM, Tris-HCl buffer pH 7.0, 60 mM KCl (Fmax) vs no KCl (F0), FIG. 6
Description: FIG. 6. Comparisons of Compound 12 and PBFI to potassium ion responses. PBFI (2.5 μM) and Compound 12 (2.5 μM) are added in Tris-HCl buffer (pH 7.0) with 60 mM KCl (Fmax) or without KCl (F0) and their fluorescence intensities are recorded. […] PBFI=Black column; Compound 12=Grey column.

[5] = Absorption spectra in TRIS buffer (pH 7.0) in the presence of 100 mM KCl; format: physicochemical; conditions: 10 μM, TRIS buffer pH 7.0, 100 mM KCl, FIG. 2
Description: as §1, with “2.” for “1.”, “PBFI” for “SBFI”, “12. PBFI” for “8. SBFI”, “12” for “8”, “KCl.” for “NaCl.”

[6] = Excitation and fluorescence spectra in TRIS buffer (pH 7.0) in the presence of 100 mM KCl; format: physicochemical; conditions: 2.5 μM, TRIS buffer pH 7.0, 100 mM KCl, FIG. 4
Description: as §2, with “4.” for “3.”, “PBFI” for “SBFI”, “12. PBFI” for “8. SBFI”, “12” for “8”, “KCl.” for “NaCl.”, “[…]” for “sharp fluorescence emission peak”

SMILES | sodium ion response compared with SBFI [1] | absorption wavelength compared with SBFI [2] | fluorescence emission peak compared with SBFI [3] | potassium ion response compared with PBFI [4] | absorption wavelength compared with PBFI [5] | fluorescence emission compared with PBFI [6]
COc1ccccc1N1CCOCCOCCN(c2cc(C(=O)O)c(-c3c4cc(F)c(=O)cc-4oc4cc(O)c(F)cc34)cc2OC)CCOCC1 [Compound 8] | much stronger sodium ion response than SBFI | much longer absorption wavelength than SBFI | much stronger and sharper fluorescence emission peak | – | – | –
COc1ccccc1N1CCOCCOCCN(c2cc(C(=O)O)c(-c3c4cc(F)c(=O)cc-4oc4cc(O)c(F)cc34)cc2OC)CCOCCOCC1 [Compound 12] | – | – | – | much stronger potassium ion response than PBFI | much longer absorption wavelength than PBFI | much stronger and sharper

— patent US20240410907A1, “FLUORESCENT ION INDICATORS AND THEIR APPLICATIONS” (AAT Bioquest, Inc., priority 2023, published 2024)
